Where “and” joins values, the source holds several entries; their conditions need not be identical. Identical values can stand only once. Entries after “also recorded” stand apart in the source; their conditions may differ.
System: patients with advanced, refractory solid tumors or lymphomas
Assay: Phase 1 trial of LMP744 (NCT03030417): safety, MTD, adverse events (CTCAE v4.03/v5.0)
Assay type: in vivo, human
From the text: The primary objectives of each study included establishing safety, tolerability, MTD, and recommended phase 2 dose (RP2D) of LMP776 and LMP744 as single agents. The LMP744 study included evaluation of tumor pharmacodynamics as an exploratory objective. Both trials were opened at the National Cancer Institute’s (NCI) Developmental Therapeutics Clinic, and the LMP744 trial was also opened at the University of Pittsburgh Hillman Cancer Center. Both trials used an accelerated dose escalation designs (Simon design 4 for LMP776, Simon design 3 for LMP744) to determine the MTD [30]. Dose levels are listed in Supplementary Table 1. Once the MTD was determined, additional patients were enrolled at that DL in an expansion cohort to evaluate pharmacodynamic changes as described below. LMP776 and LMP744 were administered intravenously through a central line via a 1-h infusion on days 1–5 (QDx5) in 28-day cycles. Both agents were supplied by the NCI Division of Cancer Treatment and Diagnosis (DCTD). The studies were approved by the NIH Institutional Review Board and conducted in accordance with the Declaration of Helsinki.
Patients were enrolled in either NCT01051635 evaluating LMP776 or NCT03030417 evaluating LMP744; these trials were conducted sequentially. Both trials required that patients be ≥ 18 years of age with solid tumors or lymphomas refractory to other treatments. Patients were required to have adequate performance status (Eastern Cooperative Oncology Group [ECOG] performance status ≤ 2), bone marrow function, and organ function as described in the Supplementary Methods. Patients in expansion phases at the MTD were required to have disease amenable to biopsy collection and be willing to undergo research biopsies. All patients provided written informed consent.
Tumor responses were evaluated by serial CT scans according to RECIST v1.1 criteria. CT scans were performed every other cycle during the first year, then every 3 cycles after the first year. Toxicities associated with LMP776 were evaluated according to criteria specified in CTCAE version 4.0; toxicities associated with LMP744 were evaluated according to the criteria specified in CTCAE version 4.03 (on or before March 31, 2018) or version 5.0 (on or after April 1, 2018). Criteria for all versions can be found at https://ctep.cancer.gov/protocolDevelopment/electronic_applications/ctc.htm. Any patient who received a dose of either agent was considered eligible for toxicity evaluation.

[1] = all DLs, highest grade per patient

COc1cc2c3c(n(CCCNCCO)c(=O)c2cc1OC)-c1cc2c(cc1C3=O)OCO2 [LMP744]
Grade 3 non-hematologic DLTs (DL7 (260 mg/m^2/day)): elevated ALT, AST, and GGT in one patient; also recorded: nausea, vomiting, and dehydration
Maximum tolerated dose (MTD) (IV QDx5, 28-day cycles (DL6)): 190 mg/m^2/day
Anemia, grade ≥ 2, prevalence (across all DLs): 36%
Fatigue, grade ≥ 2, prevalence (across all DLs): 22%
Lymphopenia, grade ≥ 2, prevalence (across all DLs): 39%
Alanine aminotransferase increased, grade ≥ 2, Total (%) (all DLs): 2 (6)
Alkaline phosphatase increased, grade ≥ 2, Total (%) (all DLs): 3 (9)
Anorexia, grade ≥ 2, Total (%) (all DLs): 2 (6)
Aspartate aminotransferase increased, grade ≥ 2, Total (%) (all DLs): 2 (6)
Blood bilirubin increased, grade ≥ 2, Total (%) (all DLs): 2 (6)
Constipation, grade ≥ 2, Total (%) (all DLs): 1 (3)
Creatinine increased, grade ≥ 2, Total (%) (all DLs): 5 (14)
Dehydration, grade ≥ 2, Total (%) (all DLs): 4 (11)
Diarrhea, grade ≥ 2, Total (%) (all DLs): 1 (3)
Dry skin, grade ≥ 2, Total (%) (all DLs): 1 (3)
Edema - limbs, grade ≥ 2, Total (%) (all DLs): 1 (3)
Febrile Neutropenia, grade ≥ 2, Total (%) (all DLs): 1 (3)
GGT increased, grade ≥ 2, Total (%) (all DLs): 6 (17)
Hyperglycemia, grade ≥ 2, Total (%) (all DLs): 1 (3)
Hypoalbuminemia, grade ≥ 2, Total (%) (all DLs): 1 (3)
Hypokalemia, grade ≥ 2, Total (%) (all DLs): 2 (6)
Hypomagnesemia, grade ≥ 2, Total (%) (all DLs): 2 (6)
Hyponatremia, grade ≥ 2, Total (%) (all DLs): 1 (3)
Hypophosphatemia, grade ≥ 2, Total (%) (all DLs): 6 (17)
Hypothyroidism, grade ≥ 2, Total (%) (all DLs): 1 (3)
Hypoxia, grade ≥ 2, Total (%) (all DLs): 1 (3)
INR increased, grade ≥ 2, Total (%) (all DLs): 1 (3)
Infections and infestations - NOS, grade ≥ 2, Total (%) (all DLs): 2 (6)
Infusion site extravasation, grade ≥ 2, Total (%) (all DLs): 1 (3)
Leukopenia (White blood cell count decreased), grade ≥ 2, Total (%) (all DLs): 5 (14)
Nausea, grade ≥ 2, Total (%) (all DLs): 6 (17)
Neutropenia, grade ≥ 2, Total (%) (all DLs): 5 (14)
Pain - biopsy site, grade ≥ 2, Total (%) (all DLs): 1 (3)
Platelet count decreased, grade ≥ 2, Total (%) (all DLs): 2 (6)
Proteinuria, grade ≥ 2, Total (%) (all DLs): 2 (6)
Sudden death - NOS, Total (%) (all DLs): 1 (3)
Thrombophlebitis - superficial, grade ≥ 2, Total (%) (all DLs): 1 (3)
Urinary tract infection, grade ≥ 2, Total (%) (all DLs): 1 (3)
Vomiting, grade ≥ 2, Total (%) (all DLs): 6 (17)
Weight loss, grade ≥ 2, Total (%) (all DLs): 4 (11)
White blood cell count increased, grade ≥ 2, Total (%) (all DLs): 1 (3)
Anemia, grade ≥ 2, Total (%) [1]: 13 (37) and 13 (36)
Fatigue, grade ≥ 2, Total (%) [1]: 8 (23) and 8 (22)
Patients requiring dose reductions (enrolled at DL6 (n = 6) or DL7 (n = 5)): Eleven
Alanine aminotransferase increased, patients (grade 2, DL1-DL5): 1
Alkaline phosphatase increased, patients (grade 2, DL1-DL5): 1
Anemia, patients (grade 2, DL1-DL5): 2
Edema - limbs, patients (grade 2, DL1-DL5): 1
GGT increased, patients (grade 2, DL1-DL5): 1
Hypophosphatemia, patients (grade 2, DL1-DL5): 1
Proteinuria, patients (grade 2, DL1-DL5): 1
Vomiting, patients (grade 2, DL1-DL5): 1
Lymphopenia (Lymphocyte count decreased), patients (grade 2, DL1-DL5 (n = 7)): 1
Alanine aminotransferase increased, patients (grade 2, DL6): 1
Alkaline phosphatase increased, patients (grade 2, DL6): 1
Anemia, patients (grade 2, DL6): 4
Anorexia, patients (grade 2, DL6): 1
Aspartate aminotransferase increased, patients (grade 2, DL6): 1
Blood bilirubin increased, patients (grade 2, DL6): 1
Constipation, patients (grade 2, DL6): 1
Creatinine increased, patients (grade 2, DL6): 3
Dehydration, patients (grade 2, DL6): 1
Diarrhea, patients (grade 2, DL6): 1
Dry skin, patients (grade 2, DL6): 1
Fatigue, patients (grade 2, DL6): 6
GGT increased, patients (grade 2, DL6): 3
Hyperglycemia, patients (grade 2, DL6): 1
Hypoalbuminemia, patients (grade 2, DL6): 1
Hypomagnesemia, patients (grade 2, DL6): 1
Hyponatremia, patients (grade 2, DL6): 1
Hypophosphatemia, patients (grade 2, DL6): 4
Hypothyroidism, patients (grade 2, DL6): 1
Infections and infestations - NOS, patients (grade 2, DL6): 2
Infusion site extravasation, patients (grade 2, DL6): 1
Leukopenia (White blood cell count decreased), patients (grade 2, DL6): 3
Nausea, patients (grade 2, DL6): 3
Neutropenia, patients (grade 2, DL6): 3
Pain - biopsy site, patients (grade 2, DL6): 1
Platelet count decreased, patients (grade 2, DL6): 1
Proteinuria, patients (grade 2, DL6): 1
Thrombophlebitis - superficial, patients (grade 2, DL6): 1
Urinary tract infection, patients (grade 2, DL6): 1
Vomiting, patients (grade 2, DL6): 4
Weight loss, patients (grade 2, DL6): 4
White blood cell count increased, patients (grade 2, DL6): 1
Lymphopenia (Lymphocyte count decreased), patients (grade 2, DL6 (n = 18; suppl. n=17)): 1
Alkaline phosphatase increased, patients (grade 2, DL7): 1
Anemia, patients (grade 2, DL7): 7
Anorexia, patients (grade 2, DL7): 1
Blood bilirubin increased, patients (grade 2, DL7): 1
Creatinine increased, patients (grade 2, DL7): 2
Dehydration, patients (grade 2, DL7): 1
Fatigue, patients (grade 2, DL7): 2
Hypomagnesemia, patients (grade 2, DL7): 1
Hypophosphatemia, patients (grade 2, DL7): 1
INR increased, patients (grade 2, DL7): 1
Leukopenia (White blood cell count decreased), patients (grade 2, DL7): 1
Nausea, patients (grade 2, DL7): 1
Platelet count decreased, patients (grade 2, DL7): 1
Vomiting, patients (grade 2, DL7): 1
Lymphopenia (Lymphocyte count decreased), patients (grade 2, DL7 (n = 11)): 4
Alanine aminotransferase increased, patients (grade 2, all DLs (n=35)): 2
Alkaline phosphatase increased, patients (grade 2, all DLs (n=35)): 3
Anemia, patients (grade 2, all DLs (n=35)): 13
Anorexia, patients (grade 2, all DLs (n=35)): 2
Aspartate aminotransferase increased, patients (grade 2, all DLs (n=35)): 1
Blood bilirubin increased, patients (grade 2, all DLs (n=35)): 2
Constipation, patients (grade 2, all DLs (n=35)): 1
Creatinine increased, patients (grade 2, all DLs (n=35)): 5
Dehydration, patients (grade 2, all DLs (n=35)): 2
Diarrhea, patients (grade 2, all DLs (n=35)): 1
Dry skin, patients (grade 2, all DLs (n=35)): 1
Edema - limbs, patients (grade 2, all DLs (n=35)): 1
Fatigue, patients (grade 2, all DLs (n=35)): 8
GGT increased, patients (grade 2, all DLs (n=35)): 4
Hyperglycemia, patients (grade 2, all DLs (n=35)): 1
Hypoalbuminemia, patients (grade 2, all DLs (n=35)): 1
Hypomagnesemia, patients (grade 2, all DLs (n=35)): 2
Hyponatremia, patients (grade 2, all DLs (n=35)): 1
Hypophosphatemia, patients (grade 2, all DLs (n=35)): 6
Hypothyroidism, patients (grade 2, all DLs (n=35)): 1
INR increased, patients (grade 2, all DLs (n=35)): 1
Infections and infestations - NOS, patients (grade 2, all DLs (n=35)): 2
Infusion site extravasation, patients (grade 2, all DLs (n=35)): 1
Lymphocyte count decreased, patients (grade 2, all DLs (n=35)): 6
Nausea, patients (grade 2, all DLs (n=35)): 4
Neutropenia, patients (grade 2, all DLs (n=35)): 3
Platelet count decreased, patients (grade 2, all DLs (n=35)): 3
Proteinuria, patients (grade 2, all DLs (n=35)): 2
Thrombophlebitis - superficial, patients (grade 2, all DLs (n=35)): 1
Urinary tract infection, patients (grade 2, all DLs (n=35)): 1
Vomiting, patients (grade 2, all DLs (n=35)): 6
Weight loss, patients (grade 2, all DLs (n=35)): 4
White blood cell count decreased, patients (grade 2, all DLs (n=35)): 4
White blood cell count increased, patients (grade 2, all DLs (n=35)): 1
Dehydration, patients (grade 3, DL6): 1
Febrile Neutropenia, patients (grade 3, DL6): 1
GGT increased, patients (grade 3, DL6): 1
Hypokalemia, patients (grade 3, DL6): 1
Hypoxia, patients (grade 3, DL6): 1
Lymphopenia (Lymphocyte count decreased), patients (grade 3, DL6): 5
Nausea, patients (grade 3, DL6): 1
Neutropenia, patients (grade 3, DL6): 1
Aspartate aminotransferase increased, patients (grade 3, DL7): 1
Dehydration, patients (grade 3, DL7): 1
GGT increased, patients (grade 3, DL7): 1
Hypokalemia, patients (grade 3, DL7): 1
Lymphopenia (Lymphocyte count decreased), patients (grade 3, DL7): 2
Nausea, patients (grade 3, DL7): 1
Aspartate aminotransferase increased, patients (grade 3, all DLs (n=35)): 1
Dehydration, patients (grade 3, all DLs (n=35)): 1
Febrile Neutropenia, patients (grade 3, all DLs (n=35)): 1
GGT increased, patients (grade 3, all DLs (n=35)): 2
Hypokalemia, patients (grade 3, all DLs (n=35)): 2
Hypoxia, patients (grade 3, all DLs (n=35)): 1
Lymphocyte count decreased, patients (grade 3, all DLs (n=35)): 7
Nausea, patients (grade 3, all DLs (n=35)): 2
Neutropenia, patients (grade 3, all DLs (n=35)): 1
Leukopenia (White blood cell count decreased), patients (grade 4, DL6): 1
Lymphopenia (Lymphocyte count decreased), patients (grade 4, DL6): 1
Neutropenia, patients (grade 4, DL6): 1
Lymphocyte count decreased, patients (grade 4, all DLs (n=35)): 1
Neutropenia, patients (grade 4, all DLs (n=35)): 1
White blood cell count decreased, patients (grade 4, all DLs (n=35)): 1
Sudden death - NOS, patients (grade 5, DL7): 1
Death considered possibly related to treatment (one patient, DL7): grade 5 sudden death – NOS; also recorded: died of a pulmonary embolism

Reference: publication PMC12122562, “Phase 1 studies of the indenoisoquinolines LMP776 and LMP744 in patients with solid tumors and lymphomas” (Cancer Chemotherapy and Pharmacology, 2025)
